Measurements reported in EP2668952A2, “Aqueous formulations of bisphosphonates, vitamin D and benzyl alcohol suitable for subcutaneous or intramuscular use” (Romano, Paolo, priority 2012, dated 2013).

Assays:
[1] = Particulate matter in water solutions of zoledronic acid and cholecalciferol with organic solvents; type: physicochemical; set-up: key: *: opalescent; **: turbid; ***: precipitate; conditions: zoledronic acid 5.0 mg/3ml, cholecalciferol 0.35 mg/3ml
Method: (§1) In order to assess the degree of water solubilization of bisphosphonates and vitamin D by addition of variable amounts of benzyl alcohol and other water mixable organic solvents, 2 mother solutions at concentration of 100 mg disodium clodronate or 5 mg zoledronic acid in 2 ml water for injection, examples of respectively high and low dose bisphosphonates, were prepared and buffered with sodium bicarbonate to pH 6.5.
(§2) Two-ml samples of both solutions with the two bisphosphonates mentioned above were then diluted with water to approx. 3 ml (3 samples: more precisely 2997 µl, 2991µl, and 2970 µl), to 2.7 ml (1 sample) and to 2.4 ml (1 sample).A mother solution containing cholecalciferol in benzyl alcohol or other water mixable organic solvents in a ratio of 0.35 mg : 3.0 mg respectively (11.67% w/w) was also prepared and 2 series of 5 samples of 3.35 mg of it were taken and kept as such (1 sample) or diluted with 6.0 mg, 27.0 mg, 297.0 and 597.0 mg respectively of the same solvent (4 samples).The 5 cholecalciferol solution samples were then added, under slow stirring, to the 5 solution samples of each bisphosphonate in the order, so as to give mixtures with solvent concentration of 0.1, 0.3, 1.0, 10.0 and 20.0% (w/v), left to stand for 10 minutes and then examined according to the microscopic particle count test or visually (an instrumental particle counter was unnecessary).
Table Vb: particulate matter in water solutions of zoledronic acid 5.0 mg/3ml and cholecalciferol 0.35 mg / 3ml, containing different % concentrations (w/v) of organic solvents.

[2] = Particulate matter in water solutions of disodium clodronate and cholecalciferol with organic solvents; type: physicochemical; set-up: key: *: opalescent; **: turbid; ***: precipitate; conditions: disodium clodronate 100 mg/3ml, cholecalciferol 0.35mg/3ml
Method: as §1, §2
Table Va: particulate matter in water solutions of disodium clodronate 100 mg/3ml and cholecalciferol 0.35mg / 3ml, containing different % concentrations (w/v) of organic solvents.

[3] = 10.0 % (w/v) solvent, count or visual symbol
[4] = 20.0 % (w/v) solvent, visual symbol
[5] = 10 % (w/v) solvent, count or visual symbol
[6] = 20 % (w/v) solvent, visual symbol

| Compound | Particulate matter ≥ 10µm per ml ([1]; 0.1 % (w/v) solvent) [per ml] | Particulate matter ≥ 10µm per ml ([1]; 0.3 % (w/v) solvent) [per ml] | Particulate matter ≥ 10µm per ml ([1]; 1.0 % (w/v) solvent) [per ml] | Particulate matter ≥ 10µm per ml [1, 3] | Particulate matter ≥ 10µm per ml [1, 4] | Particulate matter ≥ 10µm per ml ([2]; 0.1 % (w/v) solvent) [per ml] | Particulate matter ≥ 10µm per ml ([2]; 0.3 % (w/v) solvent) [per ml] | Particulate matter ≥ 10µm per ml ([2]; 1.0 % (w/v) solvent) [per ml] | Particulate matter ≥ 10µm per ml [2, 5] | Particulate matter ≥ 10µm per ml [2, 6] |
| --- | --- | --- | --- | --- | --- | --- | --- | --- | --- | --- |
| OCc1ccccc1 [Benzyl alcohol] | 10 | 0 | 0 | 0 per ml | * | 8 | 0 | 0 | 0 per ml | * |
| CCO [Ethanol] | 68 | 22 | 16 | * | ** | 75 | 23 | 48 | ** | *** |
| Sorbitane monoleate [Sorbitane monoleate (SPAN® 80)] | – | – | – | – | – | 83 | 74 | 56 | ** | *** |
